Test results from patent US7169813B2, “4-oxo-fenretinide, administered alone and in combination with fenretinide, as preventive and therapeutic agent for cancer” (Fondazione IRCCS “Istituto Nazionale Dei Tumori”, priority 2004, dated 2007).
Like-named read-outs stand apart in the source and are kept apart here.

How the values were obtained:
plasma retinol levels = assay: Effects on plasma retinol in mice; format: in vivo; details: mice i.p. 120 mg/kg for 4 days; for Retinol % reduction: plasma, baseline vs 5 h after last treatment, control 22
Experimental: One of the main side effects of 4-HPR, is diminished dark adaptation or nyctalopia (Formelli et al., FASEB J., 1996, 10:1014–1024) which is caused by a decrease in plasma retinol levels (Formelli et al., Cancer Res., 49:6149–6152). The influence of 4-oxo-4-HPR on plasma retinol levels was assessed in mice and was compared with the effects caused by 4-HPR. Animal studies were approved by the Ethics Committee for Animal Experimentation of Istituto Nazionale Tumori (Milan Italy) and were carried out according to national and international guidelines (Italian Governing Law, Legislative decree 116, Jan. 27, 1992 and UKCCCR guidelines for the welfare of animals in experimental neoplasia. Br. J. Cancer 1988, 58:109–113). Female Swiss nude mice (7–9 weeks old) were supplied by Charles River (Calco, Italy) and kept in laminar air-flow rooms in sterilised cages, with bedding, food and acidified water. 4-HPR was obtained from Dr. J. A. Crowell —NCI Bethesda, Md., USA. 4-oxo-4-HPR and 4-HPR were dissolved in absolute ethanol and then diluted in a sterile 0.9% (w/v) NaCl solution containing 1,65 mg/ml bovine serum albumin (Sigma, St Louis, Mo., USA) at a final ethanol concentration of 10% (v/v). The drug solutions were freshly prepared once a week, protected from light and kept at 4° C. Mice were treated i.p. with 120 mg/kg of 4-oxo-4-HPR or 4-HPR for 4 days. The two drugs were delivered at a volume of 10 ml/kg of body weight. Control mice were treated with the same solvent of 4-oxo-4HPR and 4-HPR. Three mice per group were used. Blood samples, for drug and retinol measurements, were drawn from the retroorbital plexus of anesthetized mice before and 5 hr after the last treatment, collected into heparinized tubes and wrapped in aluminium foil in order to protect them from light. Retinol and drug concentrations in plasma were assayed by HPLC as previously described (Formelli et al., Cancer Res. 1989, 49:6149–6152) and as above reported (see Exemple 1) and are reported in Table 3.

T-47D = assay: Growth inhibition (sulforhodamine B assay), single agents and combination; format: cell-based, human; details: for IC50: Homo sapiens, T47D, read-out: 50% Inhibitory Concentrations (IC50) at 72 h; for IC50 / Survival (% control cells): 72 h; for Survival (% control cells): single agent 1 μM
Experimental: (§1) The following human breast tumor cell lines, obtained from Dr. R. Sutherland (Garvan Institute, Sydney, Australia) were tested: T-47D, BT-20 and MCF-7. The following human neuroblastoma cell lines, purchased from ATCC, were tested: SK-N-BE, SK-N-SH, SK-N-MC, and GI-LI-N. All cell lines were grown in monolayer, in medium containing 10% fetal bovine serum (Invitrogen) in 5% CO2 at 37° C. The medium for A2780, A2780/HPR, IGROV-1, OVCA432, SKOV-3, T-47D, BT-20, MCF-7, GI-LI-N and SK-N-BE cells was RPMI 1640 (Cambrex, Verviers, Belgium) and the medium for OAW42, SK-N-MC and SK-N-SH cells was EMEM (ATCC).
(§2) For the growth inhibition assays, cells were seeded at a density of 3500 cells per well in 96 cluster tissue culture plates, and treated 24 hr after seeding with different concentrations of 4-oxo-4-HPR or 4-HPR. 4-oxo-4-HPR was dissolved in absolute ethanol and 4-HPR (obtained from Dr. J. A. Crowell —NCI Bethesda, Md., USA) was dissolved in Me2SO. […] Control cultures received the same amount of ethanol or Me2SO as the treated cultures. 72 hr after treatment cell number was estimated by using the sulforhodamine B assay according to Monks et al., (J. Natl. Cancer, 1991, 11: 757–766). The survival of treated cells was calculated for the various drug concentrations as percentage of the survival of control cells. The antiproliferative activity of 4-oxo-4-HPR and 4-HPR in each cell line, was tested in three separate experiments and the average values ±SD are reported in FIGS. 2, 3, and 4.
(§3) The antiproliferative effect of the combination of the two drugs, administered at one single dose, was also tested in other ovarian carcinoma cell lines and in breast tumor cell lines. The type of interaction between 4-HPR and 4-oxo-4-HPR was assessed by the method of Drevinko et al., as described in Cancer Biochem. Biophys., 1976, 1:187–195. For this evaluation the drugs were assumed to provide independent effects. The combination index (CI) was calculated as follows: survival fraction (SF) of the combination of 4-HPR+4-oxo-4-HPR divided by (SF 4-HPR×SF 4-oxo-4-HPR). The results for CI are defined as follows: CI=1 indicates an additive effect, CI<1 indicates a supra-additive effect and CI>1 indicates a sub-additive effect.

BT-20 = assay: as above; format: cell-based, human
Experimental: as §1, §2, §3

MCF-7 = assay: as above; format: cell-based, human; details: for IC50: Homo sapiens, read-out: 50% Inhibitory Concentrations (IC50) at 72 h; for Survival (% control cells): single agent 1 μM
Experimental: as §1, §2, §3

SKOV-3 = assay: Growth inhibition (sulforhodamine B assay); format: cell-based; details: Homo sapiens, read-out: 50% Inhibitory Concentrations (IC50) at 72 h
Experimental: (§4) The following human ovarian carcinoma cell lines were tested: A2780 was obtained from Dr. R. F. Ozols (National Cancer Institute, Bethesda, Md., USA); IGROV-1 was obtained from Dr. J. Benard (Villejuif, France); OVCA432 was obtained from Dr. R. C. Knapp (Boston, Mass., USA); OAW42 and SKOV-3 were purchased from ATCC (Rockville, Md., USA). A2780/HPR, a 4-HPR— resistant ovarian carcinoma cell line, was obtained in our laboratory by continuous exposure of A2780 cells to increasing concentrations of 4-EPR as previously described (Appierto et al., Br. J. Cancer, 2001, 84:1528–1534; Prinetti et al., J. Biol. Chem., 2003, 278:5574–5583). Briefly, cells surviving 60 transplants in 4-HPR —containing medium (3 transplants at 1 μM, 11 transplants at 2 μM, 8 transplants at 3 μM, and 38 transplants at 5 μM) were cloned by limiting dilution. […] Therefore, A2780/HPR cells were continuously maintained in 5 μM 4-HPR and seeded without 4-HPR in all the experiments performed to test their sensitivity to 4-oxo-4-HPR.
as §1, §2

OAW42 = assay: Growth inhibition (sulforhodamine B assay); format: cell-based; details: Homo sapiens, read-out: 50% Inhibitory Concentrations (IC50) at 72 h
Experimental: as §4, §1, §2

SK-N-SH = assay: Growth inhibition (sulforhodamine B assay); format: cell-based, human; details: for IC50: Homo sapiens, 72 h, read-out: 50% Inhibitory Concentrations (IC50) at 72 h
Experimental: as §1, §2

SK-N-MC = assay: Growth inhibition (sulforhodamine B assay); format: cell-based, human; details: for IC50: Homo sapiens, 72 h, read-out: 50% Inhibitory Concentrations (IC50) at 72 h
Experimental: as §1, §2

CC1=C(/C=C/C(C)=C/C=C/C(C)=C/C(=O)Nc2ccc(O)cc2)C(C)(C)CCC1 [4-HPR, N-(4-hydroxyphenyl)retinamide, reference compound]
Retinol % reduction (plasma retinol levels): 56% | IC50 (T-47D; T-47D): 4000 nM | Survival (% control cells) (T-47D; T-47D): 90 % control cells | Survival (% control cells) (BT-20; BT-20; single agent 1 μM; 72 h): 89 % control cells | IC50 (BT-20; Homo sapiens; BT-20; 72 h; read-out: 50% Inhibitory Concentrations (IC50) at 72 h): 7000 nM | IC50 (MCF-7; MCF7, MCF-7, 72 h): 3000 nM | Survival (% control cells) (MCF-7; MCF-7, 72 h): 86 % control cells | IC50 (SKOV-3; SK-OV-3, SKOV-3, 72 h): 8000 nM | IC50 (OAW42; OAW-42, OAW42, 72 h): 10000 nM | IC50 (SK-N-SH): 5000 nM | IC50 (SK-N-MC): 700 nM

CC1=C(/C=C/C(C)=C/C=C/C(C)=C/C(=O)Nc2ccc(O)cc2)C(C)(C)CCC1=O [4-oxo-4-HPR, 4-oxo-N-(4-hydroxyphenyl)retinamide]
reduction of plasma retinol levels, in words (plasma retinol levels): reduction only slightly higher than observed in control mice | Retinol % reduction (plasma retinol levels): 38% | IC50 (T-47D): 2500 nM | tumor cell survival (FIG. 3), compared with 4-HPR, in words (T-47D; T-47D, 72 hr): similarly effective | Survival (% control cells) (T-47D; T-47D): 94 % control cells | tumor cell survival (FIG. 3), compared with 4-HPR, in words (BT-20; BT-20; 72 hr): more potent than 4-HPR | Survival (% control cells) (BT-20; BT-20; single agent 1 μM; 72 h): 70 % control cells | IC50 (BT-20; Homo sapiens, BT-20, 72 h, read-out: 50% Inhibitory Concentrations (IC50) at 72 h): 2000 nM | IC50 (MCF-7; MCF7, 72 h): 1500 nM | tumor cell survival (FIG. 3), compared with 4-HPR, in words (MCF-7; MCF-7, 72 hr): more potent than 4-HPR | Survival (% control cells) (MCF-7; MCF-7, 72 h): 56 % control cells | IC50 (SKOV-3; SK-OV-3, 72 h): 2000 nM | IC50 (OAW42; OAW-42, 72 h): 3000 nM | cell sensitivity (FIG. 4), compared with 4-HPR, in words (SK-N-SH; 72 hr): more sensitive to 4-oxo-HPR than to 4-HPR | IC50 (SK-N-SH): 3000 nM | cell sensitivity (FIG. 4), compared with 4-HPR, in words (SK-N-MC; 72 hr): more sensitive only at the lowest concentration tested (0.3 μM) | IC50 (SK-N-MC): 400 nM
